# Source: US20200024662A1, “METHODS FOR TREATING OPIOID ADDICTION” (ASSUREX HEALTH, INC., priority 2016, published 2020)
# Experiments:
# Format in all cases: in vivo, human
# [1] = test system: patients treated with Methadone in the START trial; assay: PK model (predicted exposure) binning vs Methadone completion
# Description: (§1) For the model analyses, models were developed that sort patients into one of three categories, Green (‘G’) Yellow (‘Y’) or Red (‘R’). Patients determined to be high risk for non-completion by the model are placed into the Red Bin. Patients at intermediate risk of non-completion are placed in the Yellow Bin, and for this study, Yellow Bin patients are treated the same as patients found to be at Low Risk of non-completion, or those who are placed in the Green Bin. Thus, the Green and Yellow bins are combined for analysis.
# The PK model represents a physiologically based pharmacokinetic algorithm that combines combinatorial pharmacogenetics with a physiological algorithm for predicting medication exposure, as described elsewhere herein. Model assignments to G Y or R were based on the therapeutic ranges provided by the literature for methadone as shown in Table 15.
# (§2) Samples from patients treated with Methadone in the START trial described in Example 1 above were used (N=352). […] Each model was tested as described below against Sample 1, Sample 2 and/or the Full Sample.
# (§3) Pearson's product moment, Chi-square with Yates correction were calculated. Diagnostic tests, odds ratios, Pearson's product moment, Chi-square with Yates correction were calculated using MEDCALC and R version 3.3.1.
# [2] = test system: patients treated with Methadone in the START trial; assay: Completion of 24-week Methadone treatment, START samples of Example 2; settings: 24-week treatment
# Description: as §2
# [3] = test system: patients treated with Methadone in the START trial; assay: PD Model 3 binning vs Methadone completion
# Description: as §1
# PD Model 3: The completion percentage was calculated for each genotype. For each genotype, the raw percent difference of completion compared to the mean of completion was assigned as the genotype's PD score. The patient's PD risk was calculated by summing the total genotype risk score. Bins were assigned over the range of scores that maximized completers in Green and Yellow bins and non-completers in the Red bin.
# as §2, §3
# [4] = test system: patients treated with Methadone in the START trial; assay: PD Model 1 binning vs Methadone completion
# Description: as §1
# PD Model 1: The completion percentage was calculated for each genotype. For each gene and genotype completion percentage, the means and standard deviations were calculated. For each genotype that was greater than or equal to one standard deviation away from the mean, towards higher completion, a score of 1 was given. For each genotype that was greater than or equal to one standard deviation away from the mean, towards lower completion, a score of −1 was given. All others received a score of 0. The patient's PD risk was calculated by summing the total genotype risk score. The individual risk scores were combined to create the SumRisk variable; a final score of −1 was converted to Green, a score of 0 was converted to Yellow, and a score of 1 was converted to Red. […] A listing of tested alleles, and score assignments for PD Model 1 can be found in Table 16.
# as §2, §3
# [5] = test system: patients treated with Methadone in the START trial; assay: Baseline model (GeneSight Analgesic test) binning vs Methadone completion; settings: Full Sample
# Description: as §1
# The GeneSight Analgesic test (commercial test available from Assurex Health, Inc.) was used as a baseline to determine High Risk patients entering methadone maintenance therapy. Furthremore, the following PK, PD and PK/PD models were evaluated.
# as §2, §3
# [6] = PD Model 3, Full Sample, Green bin, Risk Score −2.3 to −0.3
# [7] = PD Model 3, Full Sample, Red bin, Risk Score 1+
# [8] = PD Model 3, Full Sample, Yellow bin, Risk Score −0.2 to 0.9
# [9] = PD Model 3, Sample 1, Green bin, Risk Score −1.8 to −0.3
# [10] = PD Model 3, Sample 1, Red bin, Risk Score 1 to 2.1
# [11] = PD Model 3, Sample 1, Yellow bin, Risk Score −0.2 to 0.9
# [12] = PD Model 3, Sample 2, Green bin, Risk Score −2.1 to −0.7
# [13] = PD Model 3, Sample 2, Red bin, Risk Score 0.2 to 2
# [14] = PD Model 3, Sample 2, Yellow bin, Risk Score −0.6 to 0.1
# [15] = PD Model 1, Full Sample, COMT Low Risk, SLC6A4 High Risk (Yellow)
# [16] = PD Model 1, Full Sample, COMT Low Risk, SLC6A4 Normal Risk (Green)
# [17] = PD Model 1, Full Sample, COMT Normal Risk, SLC6A4 High Risk (Red)
# [18] = PD Model 1, Full Sample, COMT Normal Risk, SLC6A4 Normal Risk (Yellow)
# [19] = PD Model 1, Full Sample, Green bin
# [20] = PD Model 1, Full Sample, Red bin
# [21] = PD Model 1, Full Sample, Yellow bin
# [22] = PD Model 1, Sample 1, COMT Low Risk, SLC6A4 High Risk (Yellow)
# [23] = PD Model 1, Sample 1, COMT Low Risk, SLC6A4 Normal Risk (Green)
# [24] = PD Model 1, Sample 1, COMT Normal Risk, SLC6A4 High Risk (Red)
# [25] = PD Model 1, Sample 1, COMT Normal Risk, SLC6A4 Normal Risk (Yellow)
# [26] = PD Model 1, Sample 1, Green bin
# [27] = PD Model 1, Sample 1, Yellow bin
# [28] = PD Model 1, Sample 2, COMT Low Risk, SLC6A4 High Risk (Yellow)
# [29] = PD Model 1, Sample 2, COMT Low Risk, SLC6A4 Normal Risk (Green)
# [30] = PD Model 1, Sample 2, COMT Normal Risk, SLC6A4 High Risk (Red)
# [31] = PD Model 1, Sample 2, COMT Normal Risk, SLC6A4 Normal Risk (Yellow)
# [32] = PD Model 1, Sample 2, Green bin
# [33] = PD Model 1, Sample 2, Yellow bin
smiles,measurement,setting,value
"CCC(=O)C(CC(C)N(C)C)(c1ccccc1)c1ccccc1 (stereo not shown) [Methadone, methadone]",Completers,"[1]; Full Sample, Green bin",181
same,Non Completers,"[1]; Full Sample, Green bin",11
same,Completers,"[1]; Full Sample, Red bin",33
same,Non Completers,"[1]; Full Sample, Red bin",22
same,Completers,"[1]; Full Sample, Yellow bin",93
same,Non Completers,"[1]; Full Sample, Yellow bin",12
same,Completers,"[1]; Sample 1, Green bin",91
same,Non Completers,"[1]; Sample 1, Green bin",6
same,Completers,"[1]; Sample 1, Red bin",12
same,Non Completers,"[1]; Sample 1, Red bin",8
same,Completers,"[1]; Sample 1, Yellow bin",53
same,Non Completers,"[1]; Sample 1, Yellow bin",6
same,Completers,"[1]; Sample 2, Green bin",94
same,Non Completers,"[1]; Sample 2, Green bin",7
same,Completers,"[1]; Sample 2, Red bin",13
same,Non Completers,"[1]; Sample 2, Red bin",6
same,Completers,"[1]; Sample 2, Yellow bin",52
same,Non Completers,"[1]; Sample 2, Yellow bin",4
same,Completers,[2]; Sample 1 (N=176),156
same,non-completers,[2]; Sample 1 (N=176),20
same,Completers,[2]; Sample 2 (N=176),159
same,non-completers,[2]; Sample 2 (N=176),17
same,Completers,[3]; [6],137
same,Non Completers,[3]; [6],9
same,Completers,[3]; [7],39
same,Non Completers,[3]; [7],10
same,Completers,[3]; [8],131
same,Non Completers,[3]; [8],26
same,Completers,[3]; [9],74
same,Non Completers,[3]; [9],2
same,Completers,[3]; [10],20
same,Non Completers,[3]; [10],7
same,Completers,[3]; [11],62
same,Non Completers,[3]; [11],11
same,Completers,[3]; [12],77
same,Non Completers,[3]; [12],2
same,Completers,[3]; [13],29
same,Non Completers,[3]; [13],9
same,Completers,[3]; [14],53
same,Non Completers,[3]; [14],6
same,Completers,[4]; [15],13
same,Non Completers,[4]; [15],1
same,Completers,[4]; [16],62
same,Non Completers,[4]; [16],4
same,Completers,[4]; [17],39
same,Non Completers,[4]; [17],13
same,Completers,[4]; [18],193
same,Non Completers,[4]; [18],27
same,Completers,[4]; [19],62
same,Non Completers,[4]; [19],4
same,Odds Ratio for non-completion,"[4]; PD Model 1, Full Sample, LR/HR vs. NR/NR",0.5499
same,Odds Ratio for non-completion,"[4]; PD Model 1, Full Sample, LR/NR vs. NR/HR",0.1935
same,Odds Ratio for non-completion,"[4]; PD Model 1, Full Sample, LR/NR vs. NR/NR",0.4612
same,Odds Ratio for non-completion,"[4]; PD Model 1, Full Sample, NR/HR vs. NR/NR",2.3827
same,Completers,[4]; [20],39
same,Non Completers,[4]; [20],13
same,Completers,[4]; [21],206
same,Non Completers,[4]; [21],28
same,Completers,[4]; [22],8
same,Non Completers,[4]; [22],0
same,Completers,[4]; [23],34
same,Non Completers,[4]; [23],1
same,Completers,[4]; [24],20
same,Non Completers,[4]; [24],7
same,Completers,[4]; [25],94
same,Non Completers,[4]; [25],12
same,Completers,[4]; [26],34
same,Non Completers,[4]; [26],1
same,Odds Ratio for non-completion,"[4]; PD Model 1, Sample 1, LR/HR vs. NR/NR",0.4447
same,Odds Ratio for non-completion,"[4]; PD Model 1, Sample 1, LR/NR vs. NR/HR",0.0840
same,Odds Ratio for non-completion,"[4]; PD Model 1, Sample 1, LR/NR vs. NR/NR",0.2304
same,Odds Ratio for non-completion,"[4]; PD Model 1, Sample 1, NR/HR vs. NR/NR",2.7417
same,Completers,"[4]; PD Model 1, Sample 1, Red bin",20
same,Non Completers,"[4]; PD Model 1, Sample 1, Red bin",7
same,Completers,[4]; [27],102
same,Non Completers,[4]; [27],12
same,Completers,[4]; [28],7
same,Non Completers,[4]; [28],0
same,Completers,[4]; [29],39
same,Non Completers,[4]; [29],2
same,Completers,[4]; [30],21
same,Non Completers,[4]; [30],6
same,Completers,[4]; [31],92
same,Non Completers,[4]; [31],9
same,Completers,[4]; [32],39
same,Non Completers,[4]; [32],2
same,Odds Ratio for non-completion,"[4]; PD Model 1, Sample 2, LR/HR vs. NR/NR",0.6491
same,Odds Ratio for non-completion,"[4]; PD Model 1, Sample 2, LR/NR vs. NR/HR",0.1795
same,Odds Ratio for non-completion,"[4]; PD Model 1, Sample 2, LR/NR vs. NR/NR",0.5242
same,Odds Ratio for non-completion,"[4]; PD Model 1, Sample 2, NR/HR vs. NR/NR",2.9206
same,Completers,"[4]; PD Model 1, Sample 2, Red bin",21
same,Non Completers,"[4]; PD Model 1, Sample 2, Red bin",6
same,Completers,[4]; [33],99
same,Non Completers,[4]; [33],9
same,Completers,[5]; Green bin,170
same,Non Completers,[5]; Green bin,19
same,Completers,[5]; Red bin,28
same,Non Completers,[5]; Red bin,3
same,Completers,[5]; Yellow bin,109
same,Non Completers,[5]; Yellow bin,23
